Source: patent US4613610A, “Cholesterol biosynthesis inhibiting pyrazole analogs of mevalonolactone and its derivatives” (Sandoz Pharmaceuticals Corp., priority 1985, dated 1986)
Like-named read-outs stand apart in the source and are kept apart here.

Key:
[1] = tested on: 3β-hydroxysterol synthesis (cholesterol biosynthesis); test: Test B. In Vivo Cholesterol Biosynthesis Inhibition Test; parameters: species or system rat (male Wistar Royal Hart); conditions: Rattus norvegicus, read-out: ED50 (50% inhibition of 3β-hydroxysterol synthesis)
Protocol: In vivo studies utilize male Wistar Royal Hart rats weighing 150±20 g. which have been kept for 7-10 days on an altered light cycle (6:30 A.M.-6:30 P.M. dark) housed two per cage and fed powdered Purina Rat Chow and water ad libitum. Three hours before the diurnal maximum of cholesterol synthesis at mid-dark, the rats are orally administered the test substance (e.g., 0.01-200 mg./kg. body weight) dissolved or as a suspension in 0.5% carboxymethylcellulose in a volume of 1 ml./100 g. body weight. Controls receive vehicle alone. One hour after receiving the test substance (or the vehicle alone), the rats are injected intraperitoneally with about 25 μCi/100 g. body weight of sodium [1-^14 C]acetate 1-3 mCi/mmol. Two hours after mid-dark, blood samples are obtained under sodium hexobarbitol anesthesia, and the serum is separated by centrifugation.
Serum samples are saponified and neutralized, and the 3β-hydroxysterols are precipitated with digitonin basically as described in Sperry et al., J. Biol. Chem. 187, 97 (1950). The [^14 C]digitonides are then counted by liquid scintillation spectrometry. After correcting for efficiencies, the results are calculted in nCi (nanocuries)of 3β-hydroxysterol formed per 100 ml. of serum. Inhibition of 3β-hydroxysterol synthesis is calculated from the reduction in the nCi of 3β-hydroxysterols formed from test groups compared to controls.
ED50 is the dose of the test substance calculated or observed to produce a 50% inhibition of 3β-hydroxysterol synthesis.

[2] = biological target: T1, HMG-CoA reductase (Rattus norvegicus, UniProt P51639); test: Test A. In Vitro Microsomal Assay of HMG-CoA Reductase Inhibition; format: biochemical, rat (male Sprague-Dawley rat liver microsomes)
T1 construct: the microsomes are the source of the HMG-CoA reductase enzyme; from tissue; host or cells: liver microsomes of male Sprague-Dawley rats (150-225 g)
T1 sequence (P51639 1-887): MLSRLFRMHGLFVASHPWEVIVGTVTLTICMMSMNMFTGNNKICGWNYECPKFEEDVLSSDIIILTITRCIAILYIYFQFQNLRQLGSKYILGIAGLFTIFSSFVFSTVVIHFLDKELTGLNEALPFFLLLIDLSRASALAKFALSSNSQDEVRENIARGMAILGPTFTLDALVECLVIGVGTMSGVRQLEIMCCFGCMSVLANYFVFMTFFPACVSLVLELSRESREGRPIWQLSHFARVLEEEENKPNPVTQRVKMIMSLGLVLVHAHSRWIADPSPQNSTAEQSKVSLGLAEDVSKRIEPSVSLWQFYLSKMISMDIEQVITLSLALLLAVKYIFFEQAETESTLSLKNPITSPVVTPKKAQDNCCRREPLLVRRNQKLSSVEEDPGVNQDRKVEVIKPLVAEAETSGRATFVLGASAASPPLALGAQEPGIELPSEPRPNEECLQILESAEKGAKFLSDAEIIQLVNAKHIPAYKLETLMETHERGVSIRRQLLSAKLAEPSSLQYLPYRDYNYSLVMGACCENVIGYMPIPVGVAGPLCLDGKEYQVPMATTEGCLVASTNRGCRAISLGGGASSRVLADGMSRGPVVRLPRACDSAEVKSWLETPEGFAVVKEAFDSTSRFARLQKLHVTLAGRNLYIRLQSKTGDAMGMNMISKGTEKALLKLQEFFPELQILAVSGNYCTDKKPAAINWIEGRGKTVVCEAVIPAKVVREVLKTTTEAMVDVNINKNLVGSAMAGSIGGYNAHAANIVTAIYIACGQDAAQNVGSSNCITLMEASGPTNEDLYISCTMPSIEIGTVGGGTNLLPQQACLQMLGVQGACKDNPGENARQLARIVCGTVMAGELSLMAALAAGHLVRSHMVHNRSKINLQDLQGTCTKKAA
Protocol: Test A. In Vitro Microsomal Assay of HMG-CoA Reductase Inhibition:
200 μl. aliquots (1.08-1.50 mg./ml.) of rat liver microsomal suspensions, freshly prepared from male Sprague-Dawley rats (150-225 g. body weight), in Buffer A with 10 mmol. dithiothreitol are incubated with 10 μl. of a solution of the test substance in dimethylacetamide and assayed for HMG-CoA reductase activity as described in Ackerman et al., J. Lipid Res. 18, 408-413 (1977), the concentration of the test substance in the assay system being 0.0001-2,000 μmolar. In the assay the microsomes are the source of the HMG-CoA reductase enzyme which catalyzes the reduction of HMG-CoA to mevalonate. The assay employs a chloroform extraction to separate the product, [^14 C]mevalonolactone, formed by the HMG-CoA reductase recution of the substrate, [^14 C]HMG-CoA. [^3 H]mevalonolactone is added as an internal reference. Inhibition of HMG-CoA reductase is calculated from the decrease in specific activity ([^14 C/^3 H]mevalonate) of test groups compared to controls.
IC50 is the concentration of the test substance in the assay system calculated or observed to produce a 50% inhibition of HMG-CoA reductase activity.

[3] = male rats, oral, in 0.5% carboxymethylcellulose, [1-14C]acetate i.p. 1 h later, serum, calculated or observed
[4] = rat liver microsomal suspensions, test substance 0.0001-2,000 μmolar, calculated or observed, read-out: IC50 (50% inhibition of HMG-CoA reductase activity)

| IC50 [2, 4] | Structure (SMILES) | ED50 [1, 3] | ED50 ([1]; po, 1 h) | IC50 [2] |
| --- | --- | --- | --- | --- |
| 60 nM | CC(C)n1nc(-c2ccccc2)c(-c2ccc(F)cc2)c1/C=C/[C@@H](O)C[C@@H](O)CC(=O)O [Example 3, Sodium erythro-(E)-3R,5S-dihydroxy-7-[4'-(4"-fluorophenyl)-1'-(1"-methylethyl)-3'-phenyl-1H-pyrazol-5'-yl]hept-6-enoate] | 0.05 mg/kg | – | – |
| 260 nM | CC(C)c1c(/C=C/[C@@H]2C[C@@H](O)CC(=O)O2)c(-c2ccc(F)cc2)nn1-c1ccccc1 (relative stereo) [Example 11, (E)-Trans-6-(2'-[3"-(4'"-fluorophenyl)-5"-(1'"-methylethyl)-1"-phenyl-1H-pyrazol-4"-yl]ethenyl)-4-hydroxy-3,4,5,6-tetrahydro-2H-pyran-2-one] | – | – | – |
| 103000 nM | CC(C)n1nc(-c2ccccc2)c(-c2ccc(F)cc2)c1/C=C\[C@@H]1C[C@@H](O)CC(=O)O1 [Example 2, (Z)-Trans-6S-(2'-[4"-(4'"-fluorophenyl)-1"-(1'"-methylethyl)-3"-phenyl-1H-pyrazol-5"-yl]ethenyl)-4R-hydroxy-3,4,5,6-tetrahydro-2H-pyran-2-one] | – | – | – |
| 20 nM | CC(C)c1nn(-c2ccccc2)c(-c2ccc(F)cc2)c1/C=C/[C@@H](O)C[C@@H](O)CC(=O)O (relative stereo) [Example 14, Sodium erythro-(±)-(E)-3,5-dihydroxy-7-[5'-(4"-fluorophenyl)-3'-(1"-methylethyl)-1'-phenyl-1H-pyrazol-4'-yl]hept-6-enoate] | 0.013 mg/kg | – | – |
| – | CC[C@H](C)C(=O)O[C@H]1C[C@@H](C)C=C2C=C[C@H](C)[C@H](CC[C@@H]3C[C@@H](O)CC(=O)O3)[C@H]21 [Mevinolin, reference compound] | – | 0.41 mg/kg | 140 nM |
| 40 nM | CC(C)n1nc(-c2ccccc2)c(-c2ccc(F)cc2)c1/C=C/[C@@H](O)C[C@@H](O)CC(=O)O (relative stereo) [Example 7, Sodium erythro-(E)-3,5-dihydroxy-7-[4'-(4"-fluorophenyl)-1'-(1"-methylethyl)-3'-phenyl-1H-pyrazol-5'-yl]hept-6-enoate] | 0.06 mg/kg | – | – |
| – | CC[C@H](C)C(=O)O[C@H]1CCC=C2C=C[C@H](C)[C@H](CC[C@@H]3C[C@@H](O)CC(=O)O3)[C@H]21 [Compactin, reference compound] | 3.5 mg/kg | – | – |
| 80 nM | CC(C)n1nc(-c2ccccc2)c(-c2ccc(F)cc2)c1/C=C/[C@@H]1C[C@@H](O)CC(=O)O1 [Example 1, (E)-Trans-6S-(2'-[4"-(4'"-fluorophenyl)-1"-(1'"-methylethyl)-3"-phenyl-1H-pyrazol-5"-yl]ethenyl)-4R-hydroxy-3,4,5,6-tetrahydro-2H-pyran-2-one] | – | – | – |
